Data set [1] concerns HCMV AD-169. Briefly: Anti-HCMV assay (AD-169 strain), inhibition of virus-induced cytopathicity or plaque formation in HEL fibroblasts. The format is cell-based, human cytomegalovirus. The settings on record: HEL cell culture; for Inhibitory properties against HCMV (in words): AD-169 and Davis strains; for EC50: Human betaherpesvirus 5, AD169, concentration reducing virus plaque formation by 50%, read-out: Antiviral activity, EC50 HCMV AD-169. As for the experimental part:
(§1) The compounds were evaluated against human cytomegalovirus (HCMV, strains AD-169 and Davis) and the varicella zoster virus (VZV, strains OKA and YS). The antiviral assays were based on the inhibition of virus-induced cytopathicity or plaque formation in human embryonic lung (HEL) fibroblasts. Confluent cell cultures in 96-well microplates were inoculated with 100 CCID50 of the virus (1 CCID50 being the virus dose to infect 50% of the cell culture) or 10 or 100 plaque-forming units (PFU) (for VZV and HCMV) in the presence of varied concentrations of the test compounds. Viral cytopathicity or plaque formation was recorded as soon as it reached completion in the control virus-infected cell cultures not treated with the test compounds.
Background: Damage to the host cells serves as the signal in cytopathic effect assays.

Data set [2] has as its system HCMV Davis. Briefly: Anti-HCMV assay (Davis strain), inhibition of virus-induced cytopathicity or plaque formation in HEL fibroblasts. The format is cell-based, human cytomegalovirus. The settings on record: Human betaherpesvirus 5; HEL cell culture; concentration reducing virus plaque formation by 50%; read-out: Antiviral activity, EC50 HCMV Davis. As for the experimental part: as §1

Data set [3] concerns VZV Oka (TK+). Briefly: microbe, parasite or virus in culture. Type of data set: cell-based, varicella zoster virus. The note with it: Human alphaherpesvirus 3, HEL, read-out: Antiviral activity, EC50 VZV Oka (TK+). As for the experimental part:
as §1

Data set [4] relates to VZV 07-1 (TK-). Briefly: microbe, parasite or virus in culture. The format is cell-based, varicella zoster virus. The settings on record: Human alphaherpesvirus 3, HEL, read-out: Antiviral activity, EC50 VZV 07-1 (TK-).
The subject of data set [5] is HEL cells. Briefly: Cytotoxicity, alteration of cell morphology in HEL cell culture. The note with it: minimum cytotoxic concentration causing microscopically detectable alteration of cell morphology. The format is cell-based, human.
A short description of data set [6]: Cytotoxicity, inhibition of cell growth in HEL cell culture. The note with it: human; HEL cells; concentration reducing cell growth by 50%. Type of data set: cell-based.

By EC50 is commonly meant the concentration needed to bring the measured effect to its halfway point. Broadly, the melting point is the temperature of the solid-liquid transition. By CC50 is commonly meant the concentration at which the toxic effect on the cells reaches its halfway point. Low values mean harm at low concentration, high ones better tolerance by the cells.

A value given as a limit tells only on which side of the number the result lay.

`O=c1c2ccccc2ncn1CCn1c(=O)ccn(CCCCOc2ccc(Br)cc2)c1=O` [Compound 10, 1-[4-(4-Bromophenoxy)butyl]-3-[2-(4-oxoquinazolin-4(3H)-yl)ethyl]uracil] came in with a melting point of 191 to 192 °C. Moreover, in data set [1], the “Inhibitory properties against HCMV (in words)” value (from here on “Inhibitory properties”) is listed as “complete loss of inhibitory properties” and the EC50 is over 20 µM. In addition, the EC50 in data set [2] was over 100 µM. Also, in data set [3], the EC50 was over 20 µM. Moreover, in data set [4], the EC50 is over 100 µM. In addition, the “Cytotoxicity, Cell morphology MCC” value in data set [5] was 20 μM.
Molecule `Nc1nc2c(ncn2COCCO)c(=O)[nH]1` [Acyclovir, reference compound] yielded a CC50 in data set [6] of over 100 µM.
`Nc1ccn(C[C@@H](CO)OCP(=O)(O)O)c(=O)n1` [Cidofovir, reference compound]: the EC50 in data set [1] and in data set [2] was 0.38 µM in each case. The “Cytotoxicity, Cell morphology MCC” value in data set [5] was 300 μM. In addition, it took 129 µM to reach half-maximal cytotoxicity in data set [6] (CC50).
Regarding `O=c1c2ccccc2ncn1CCCn1c(=O)ccn(CCCCCOc2ccc(Br)cc2)c1=O` [Compound 17, 1-[5-(4-Bromophenoxy)pentyl]-3-[3-(4-oxoquinazolin-4(3H)-yl)propyl]uracil], the melting point lay in the range of 103.5 to 104.5 °C. Besides, the EC50 in data set [1] came to 7.31 µM. Further, the concentration giving a half-maximal response (EC50) in data set [2] was 5.23 µM. For the same molecule, the EC50 in data set [3] turned out to be 29 µM. In addition, the EC50 in data set [4] worked out at 29 µM. Also, the “Cytotoxicity, Cell morphology MCC” value in data set [5] stood at 20 μM. Also, the midpoint of cytotoxicity in data set [6], the CC50, lay at 1.81 µM.
For the molecule `O=c1[nH]c(=O)n([C@H]2C[C@H](O)[C@@H](CO)O2)cc1/C=C/Br` [Brivudine, reference compound], the EC50 in data set [3] was found to be 0.039 µM; in data set [4], 6.04 µM. For the same molecule, the “Cytotoxicity, Cell morphology MCC” value in data set [5] is reported as over 300 μM. Moreover, the cytotoxic concentration (CC50) in data set [6] is over 100 µM.
`Cc1ccc2ncn(CCn3c(=O)ccn(CCCCCOc4ccc(Br)cc4)c3=O)c(=O)c2c1` [Compound 18, 1-[5-(4-Bromophenoxy)pentyl]-3-[2-(6-methyl-4-oxoquinazolin-4(3H)-yl)ethyl]uracil] displayed a melting point of 180 to 181.5 °C. Further, in data set [1], the “Inhibitory properties” value was “complete loss of inhibitory properties” and the concentration giving a half-maximal response (EC50) is over 100 µM. For the same molecule, the EC50 in data set [2] was over 100 µM. Besides, the concentration giving a half-maximal response (EC50) in data set [3] is over 100 µM. In data set [4], the EC50 is over 100 µM. In addition, in data set [5], the “Cytotoxicity, Cell morphology MCC” value is given as over 100 μM. For the same molecule, the half-maximal cytotoxic concentration (CC50) in data set [6] was over 100 µM.
`O=c1c2ccccc2ncn1CCn1c(=O)ccn(CCCCCCCCCCOc2ccc(Br)cc2)c1=O` [Compound 14, 1-[10-(4-Bromophenoxy)decyl]-3-[2-(4-oxoquinazolin-4(3H)-yl)ethyl]uracil] had a melting point of 161 to 162 °C. In data set [1], the EC50 was over 100 µM. Besides, in data set [2], the EC50 is over 100 µM. Moreover, in data set [3], the 50% effective concentration (EC50) is over 100 µM. Further, the 50% effective concentration (EC50) in data set [4] was over 100 µM. For the same molecule, the “Cytotoxicity, Cell morphology MCC” value in data set [5] is given as over 100 μM. This molecule also came in with a CC50 in data set [6] of over 100 µM.
`Nc1nc(O)c2ncn(COC(CO)CO)c2n1` [Ganciclovir, reference compound]: the results for the half-maximal effective concentration (EC50) in data set [1] and in data set [2] were 2.4 µM and 2.01 µM, respectively. In addition, in data set [5], the “Cytotoxicity, Cell morphology MCC” value stood at 350 μM. The same molecule returned a half-maximal cytotoxic concentration (CC50) in data set [6] of 196 µM.
Take `O=c1c2ccccc2ncn1CCn1c(=O)ccn(CCCCCCCCCCCCOc2ccc(Br)cc2)c1=O` [Compound 15, 1-[12-(4-Bromophenoxy)dodecyl]-3-[2-(4-oxoquinazolin-4(3H)-yl)ethyl]uracil]: the melting point is 150 to 152 °C. Besides, the EC50 in data set [1] is over 100 µM. Besides, the EC50 in data set [2] was over 100 µM. In data set [3], the concentration for a half-maximal effect (EC50) is over 100 µM. For the same molecule, the EC50 in data set [4] was over 100 µM. The “Cytotoxicity, Cell morphology MCC” value in data set [5] was at least 100 μM. Further, the 50% cytotoxic concentration (CC50) in data set [6] was over 100 µM.
For the molecule `O=c1c2ccccc2ncn1CCn1c(=O)ccn(CCCOc2ccc(Br)cc2)c1=O` [Compound 9, 1-[3-(4-Bromophenoxy)propyl]-3-[2-(4-oxoquinazolin-4(3H)-yl)ethyl]uracil], the melting point is 178.5 to 179.5 °C. Further, in data set [1], the “Inhibitory properties” value is listed as “complete loss of inhibitory properties” and the EC50 was over 100 µM. Also, in data set [2], the half-maximal effective concentration (EC50) was over 100 µM. Also, the EC50 in data set [3] is over 100 µM. Besides, the EC50 in data set [4] was over 100 µM. Also, in data set [5], the “Cytotoxicity, Cell morphology MCC” value was 100 μM.
In the case of `O=c1c2ccc(Cl)cc2ncn1CCn1c(=O)ccn(CCCCCOc2ccc(Br)cc2)c1=O` [Compound 16, 1-[5-(4-Bromophenoxy)pentyl]-3-[2-(7-chloro-4-oxoquinazolin-4(3H)-yl)ethyl]uracil], the melting point fell in the range of 154 to 155 °C. Further, in data set [1], the “Inhibitory properties” value was “complete loss of inhibitory properties” and the concentration giving a half-maximal response (EC50) was over 20 µM. For the same molecule, in data set [2], the EC50 is over 20 µM. The EC50 in data set [3] was over 20 µM. Also, the EC50 in data set [4] was over 100 µM. Moreover, the “Cytotoxicity, Cell morphology MCC” value in data set [5] is given as 20 μM.
Regarding `O=c1c2ccccc2ncn1CCn1c(=O)ccn(CCCCCOc2ccc(Br)cc2)c1=O` [Compound 11, 1-[5-(4-Bromophenoxy)pentyl]-3-[2-(4-oxoquinazolin-4(3H)-yl)ethyl]uracil], the melting point lay within 174.5 to 176 °C. Further, in data set [1], the “Inhibitory properties” value is recorded as “complete loss of inhibitory properties” and the EC50 is over 20 µM. For the same molecule, in data set [2], the EC50 was over 20 µM. Also, the EC50 in data set [3] is over 20 µM. Besides, the concentration for a half-maximal effect (EC50) in data set [4] is over 100 µM. In data set [5], the “Cytotoxicity, Cell morphology MCC” value worked out at 100 μM.
As to `O=c1c2ccccc2ncn1CCn1c(=O)ccn(CCCCCCCCOc2ccc(Br)cc2)c1=O` [Compound 13, 1-[8-(4-Bromophenoxy)octyl]-3-[2-(4-oxoquinazolin-4(3H)-yl)ethyl]uracil], the melting point lay in the range of 171.5 to 173 °C. Further, the EC50 in data set [1] is over 100 µM. Besides, the EC50 in data set [2] is over 100 µM. Moreover, the EC50 in data set [3] was over 100 µM. For the same molecule, in data set [4], the EC50 was over 100 µM. The “Cytotoxicity, Cell morphology MCC” value in data set [5] is on record as over 100 μM. Besides, in data set [6], the CC50 was 12.8 µM.
Take `O=c1c2ccccc2ncn1CCn1c(=O)ccn(CCCCCCOc2ccc(Br)cc2)c1=O` [Compound 12, 1-[6-(4-Bromophenoxy)hexyl]-3-[2-(4-oxoquinazolin-4(3H)-yl)ethyl]uracil]: the melting point lay within 178.5 to 179.5 °C. For the same molecule, in data set [1], the EC50 is over 100 µM. Also, the concentration giving a half-maximal response (EC50) in data set [2] was over 20 µM. For the same molecule, in data set [3], the concentration giving a half-maximal response (EC50) was over 100 µM. Besides, the EC50 in data set [4] is over 100 µM. Moreover, the “Cytotoxicity, Cell morphology MCC” value in data set [5] is 100 μM.
